Converted amounts (≈) assume the structure as drawn.
How the values were obtained:
Apis mellifera = settings: acute, mortality
Bibionidae = settings: chronic/long-term; duration: 28 days
Cyprinus carpio = settings: acute; duration: 96 hours; mortality
Daphnia magna = settings: chronic/long-term; duration: 21 days; reproduction
Folsomia candida = settings: chronic/long-term
Pimephales promelas = settings: chronic/long-term; duration: 33 days; growth
[1] = reproduction developmental, body weight

`O=C(O)c1cn[nH]c1C(F)F` [1H-3-Difluoromethylpyrazole-4-carboxylic acid] was tested, and the NOAEL (Oryctolagus sp.; [1]) was 300 mg/kg-day.

In the case of `Cn1cc(C(=O)O)c(C(F)F)n1` [3-(Difluoromethyl)-1-methyl-1H-pyrazole-4-carboxylic acid], the NOAEL (Oryctolagus sp.; reproduction developmental, no effects) is reported as 250 mg/kg-day.

For `Cn1cc(C(=O)Nc2ccccc2-c2cc(F)c(F)c(F)c2)c(C(F)F)n1` [Fluxapyroxad], the LD50 (Anas platyrhynchos; acute, oral, unspecified, mortality) was over 2000 mg/kg-day, the NOEC (Anas platyrhynchos; reproductive) was 33.6 mg/kg-day and the LC50 (Anas platyrhynchos; short-term, oral, feed, mortality) was over 1720 mg/kg-day. For the same compound, the LD50 (Apis mellifera; dermal) was over 100 µg/piece, the LD50 (Apis mellifera; oral, unspecified) was over 111 µg/piece and the NOEC (Bibionidae) was 75.9 mg/L. The LC50 (Colinus virginianus; acute, oral, diet, mortality) was over 912 mg/kg-day, the LD50 (Colinus virginianus; acute, oral, mortality) was over 2000 mg/kg-day and the NOEC (Colinus virginianus; reproduction developmental) was 74.6 mg/kg-day. It also gave an LC50 (Cyprinus carpio) of 0.29 µg/mL (≈ 0.761 µM), an NOEC (Daphnia magna) of 0.5 mg/L and an NOEC (Folsomia candida) of 2.99 mg/kg. It also gave an NOAEL (Oryctolagus sp.; developmental, development) of 25 mg/kg-day, an NOEC (Pimephales promelas) of 0.0359 mg/L and an LD50 (Rattus norvegicus; acute, oral, mortality) of over 2000 mg/kg-day. For the same compound, the NOAEL (Rattus norvegicus; chronic, duration: 2 years, organ weight) was 2.1 mg/kg-day, the NOAEL (Rattus norvegicus; [1]) was 25 mg/kg-day and the NOAEL (Rattus norvegicus; subchronic, duration: 90 days, oral, organ weight) was 6 mg/kg-day. For the same compound, the LC50 (Tagia sp.; acute, mortality) was over 1000 mg/kg and the NOEC (Tagia sp.; chronic/long-term, duration: 56 days) was 21.3 mg/kg.

Source: EPA's ToxValDB 9.5 (doi:10.2903/j.efsa.2012.2522)
